US20090105293A1, “USE OF THIENOPYRIDONE DERIVATIVES AS AMPK ACTIVATORS AND PHARMACEUTICAL COMPOSITIONS CONTAINING THEM” (priority 2005, published 2009)

Columns and labels:
ob/ob and db/db mice = details: 8 day administration; both ob/ob and db/db mice; cited from earlier work
[1] = system: Human recombinant AMPK enzyme; assay: AMPK screening assay, AlphaScreen technology; format: biochemical; details: 25 mM Tris/HCl buffer pH 7.5, 100 μM ATP, AMARAA peptide substrate, 30 min room temperature, activator concentration not given
Protocol: (§1) Human recombinant AMPK enzyme was expressed in E. Coli and was reactivated in vitro by LKB1 prior to enzyme activity determination.
(§2) AMPK enzyme activities were assayed by using 2 fluorescent based technologies (AlphaScreen/Delfia) and were carried out in microtiter plates (containing 25 mM Tris/HCl buffer, pH 7.5 with 100 μM ATP/50 mM Hepes buffer, pH 7.4 with 125 μM ATP respectively) in the presence of a synthetic peptide substrate (AMARAASAAALARRR, the “AMARAA” peptide) and activators in serial dilutions. Reactions were initiated by the addition of AMPK (50-100 ng). Following mixing, the plates were incubated for 30 min at room temperature. Enzyme activity was assayed by using an anti-phosphoserine antibody to measure the quantity of phosphate incorporated into the AMARAA. Activity is expressed in % of control (basal activity): […]

[2] = system: Human recombinant AMPK enzyme; assay: AMPK screening assay, Delfia technology; format: biochemical; details: 50 mM Hepes buffer pH 7.4, 125 μM ATP, AMARAA peptide substrate, 30 min room temperature, activator concentration not given
Protocol: as §1, §2

| α-Screen: AMPK activity expressed in % of control (basal activity) [1] | Delfia: AMPK activity expressed in % of control (basal activity) [2] | SMILES | reduction of blood glucose (ob/ob and db/db mice) [%] |
| --- | --- | --- | --- |
| 181 % of control | 233 % of control | CC(C)c1c(Cl)sc2[nH]c(=O)c(-c3ccccc3)c(O)c12 [Compound 204, 2-Chloro-4-hydroxy-3-isopropyl-5-phenyl-7H-thieno[2,3-b]pyridin-6-one] |  |
| 166 % of control | 151 % of control | O=c1[nH]c2sc(Cl)c(C3CC3)c2c(O)c1-c1cccc(Oc2ccccc2)c1 [Compound 205, 2-chloro-3-cyclopropyl-4-hydroxy-5-(3-phenoxy-phenyl)-7H-thieno[2,3-b]pyridine-6-one] |  |
| 269 % of control | 164 % of control | CCC(C)c1c(Cl)sc2[nH]c(=O)c(-c3ccccc3)c(O)c12 (centres unmarked) [Compound 206] |  |
| 131 % of control | 169 % of control | CC(C)c1csc2[nH]c(=O)c(-c3ccccc3)c(O)c12 [Compound 207, 4-Hydroxy-3-isopropyl-5-phenyl-7H-thieno[2,3-b]pyridin-6-one] |  |
| 154 % of control | 163 % of control | O=c1[nH]c2scc(C3CC3)c2c(O)c1-c1ccccc1 [Compound 208, 3-Cyclopropyl-4-hydroxy-5-phenyl-7H-thieno[2,3-b]pyridin-6-one] |  |
| 156 % of control | 201 % of control | CCC(C)c1csc2[nH]c(=O)c(-c3ccccc3)c(O)c12 (centres unmarked) [Compound 209] |  |
| 176 % of control | 286 % of control | O=c1[nH]c2sc3c(c2c(O)c1-c1ccccc1)CCCC3 [Compound 210, 4-Hydroxy-3-phenyl-5,6,7,8-tetrahydro-1-benzothieno[2,3-b]pyridin-2(1H)-one] |  |

The next lines start with the molecule.

| SMILES | α-Screen: AMPK activity expressed in % of control (basal activity) [1] | Delfia: AMPK activity expressed in % of control (basal activity) [2] | reduction of blood glucose (ob/ob and db/db mice) [%] |
| --- | --- | --- | --- |
| NC(=O)c1ncn([C@@H]2O[C@H](CO)[C@@H](O)[C@H]2O)c1N [AICAR] |  |  | 35 |
| Cc1sc2[nH]c(=O)c(-c3ccccc3)c(O)c2c1C [Compound 200, 4-Hydroxy-2,3-dimethyl-5-phenyl-7H-thieno[2,3-b]pyridin-6-one] | 154 % of control | 232 % of control |  |
| CCc1cc2c(O)c(-c3ccccc3)c(=O)[nH]c2s1 [Compound 201, 2-Ethyl-4-hydroxy-5-phenyl-7H-thieno[2,3-b]pyridin-6-one] | 150 % of control | 219 % of control |  |
| Cc1c(Br)sc2[nH]c(=O)c(-c3ccccc3)c(O)c12 [Compound 202, 2-Bromo-4-hydroxy-3-methyl-5-phenyl-7H-thieno[2,3-b]pyridin-6-one] | 322 % of control | 313 % of control |  |
| O=c1[nH]c2sc(Br)cc2c(O)c1-c1ccccc1 [Compound 203, 2-Bromo-4-hydroxy-5-phenyl-7H-thieno[2,3-b]pyridin-6-one] | 286 % of control | 271 % of control |  |
